Target: T1, hA1AR G279S^7.44 (Homo sapiens, UniProt P30542, G279S)
T1 sequence (P30542 1-326 G279S): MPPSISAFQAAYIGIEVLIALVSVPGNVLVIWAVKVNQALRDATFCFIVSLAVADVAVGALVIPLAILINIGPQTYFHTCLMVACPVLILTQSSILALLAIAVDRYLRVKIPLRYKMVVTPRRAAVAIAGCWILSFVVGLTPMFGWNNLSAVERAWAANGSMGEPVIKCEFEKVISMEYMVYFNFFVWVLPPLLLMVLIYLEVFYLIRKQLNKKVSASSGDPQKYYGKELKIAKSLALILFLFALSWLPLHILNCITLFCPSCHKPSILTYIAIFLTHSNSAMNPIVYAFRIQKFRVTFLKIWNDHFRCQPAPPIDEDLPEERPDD
Test: [3H]DPCPX radioligand displacement assay, CHO membranes
Assay type: binding
Design: HA; expressed in transfected cells; host or cells: CHO cells, transient PEI transfection; membranes prepared
Settings: fraction of high-affinity state; two-site model
Experimental: Transient transfection of CHO cells with wild type or mutated hA1AR plasmid constructs was performed using a polyethylenimine (PEI) method. Cells were seeded in 10-cm culture dishes to achieve 50–60% confluency 24 h prior to transfection. On the day of transfection, cells were transfected with a PEI: DNA ratio of 3:1 and a plasmid DNA amount of 10 μg/dish. Moreover, 24 h post-transfection, the medium was refreshed, and 48 h after transfection, cells were collected and membranes were prepared as previously described. Membranes were aliquoted in 250 or 100 μL and stored at −80 °C. Membrane protein concentrations were determined using the BCA method.
The displacement assays were performed as described previously. […] After the addition of 25 µL per well of the Microscint scintillation cocktail (PerkinElmer, Groningen, The Netherlands), the filter-bound radioactivity was measured by scintillation spectrometry in a Microbeta2® 2450 microplate counter (PerkinElmer).
All experimental data were analyzed by GraphPad Prism 7.0 or 8.0 (GraphPad Software Inc., San Diego, CA, USA). Data from yeast liquid growth and [^35S]GTPγS binding assays were analyzed by non-linear regression using “log (agonist) vs. response (three parameters)” or “log (inhibitor) vs. response (three parameters)” to obtain potency (EC50), inhibitory potency (IC50), and efficacy (Emax or Imax) values. […]

OC[C@H]1O[C@@H](n2cnc3c(NC4CCCC4)ncnc32)[C@H](O)[C@@H]1O [CPA, N^6-cyclopentyladenosine]
Fraction (High): 0.17 ± 0.04
